Values after ≈ are worked out from the molar mass of the structure shown. Active and inactive are the calls of the source. No cut-off for these calls is given here.
Columns and labels:
Assay type in all cases: functional
[1] = system: Phytophthora infestans; test: Antifungal activity against Phytophthora infestans after 48 to 72 hrs by disk diffusion method
[2] = system: Bacillus subtilis; test: Bactericidal activity against Bacillus subtilis after 24 hrs by visual and spectrophotometric analysis
[3] = system: Staphylococcus aureus; test: Antibacterial activity against Staphylococcus aureus after 24 hrs by visual and spectrophotometric analysis
[4] = system: Escherichia coli; test: Antibacterial activity against Escherichia coli after 24 hrs by visual and spectrophotometric analysis
[5] = system: Staphylococcus aureus; test: Bactericidal activity against Staphylococcus aureus after 24 hrs by visual and spectrophotometric analysis
[6] = system: Klebsiella pneumoniae; test: Bactericidal activity against Klebsiella pneumoniae after 24 hrs by visual and spectrophotometric analysis
[7] = system: Klebsiella pneumoniae; test: Antibacterial activity against Klebsiella pneumoniae after 24 hrs by visual and spectrophotometric analysis
[8] = system: Bacillus subtilis; test: Antibacterial activity against Bacillus subtilis after 24 hrs by visual and spectrophotometric analysis
[9] = system: Escherichia coli; test: Ratio of MBC to MIC against Escherichia coli
[10] = system: Escherichia coli; test: Bactericidal activity against Escherichia coli after 24 hrs by visual and spectrophotometric analysis
[11] = system: Klebsiella pneumoniae; test: Ratio of MBC to MIC against Klebsiella pneumoniae
[12] = system: Bacillus subtilis; test: Ratio of MBC to MIC against Bacillus subtilis
[13] = system: Staphylococcus aureus; test: Ratio of MBC to MIC against Staphylococcus aureus

Structure (SMILES) | MIC [1] [µg/mL] | MBC [2] | MIC [3] | MIC [4] | MBC [5] | MBC [6] | MIC [7] | MIC [8] | Ratio [9] | MBC [10] | Ratio [11] | Ratio [12] | Ratio [13]
Oc1ccc(C2OC(c3ccccc3)=C(c3ccccc3)N2NC(=S)Nc2ccccc2)cc1 (configuration not stated) | 10 (≈ 21.5 µM) |  |  |  |  |  |  |  |  |  |  |  | 
COc1ccc(C2OC(c3ccccc3)=C(c3ccccc3)N2NC(=S)Nc2ccccc2Cl)cc1 (configuration not stated) |  | inactive | inactive | 25 µg/mL (≈ 48.6 µM) | inactive | inactive | inactive | inactive | 2 | 50 µg/mL (≈ 97.3 µM) |  |  | 
Cc1ccc(NC(=S)NN2C(c3ccccc3)=C(c3ccccc3)OC2c2ccc(O)cc2)cc1 (configuration not stated) | 14 (≈ 29.2 µM) |  |  |  |  |  |  |  |  |  |  |  | 
COc1ccc(C2OC(c3ccccc3)=C(c3ccccc3)N2NC(=S)Nc2ccccc2C)cc1 (configuration not stated) |  | 50 µg/mL (≈ 101 µM) | 30 µg/mL (≈ 60.8 µM) | inactive | 100 µg/mL (≈ 203 µM) | 50 µg/mL (≈ 101 µM) | 25 µg/mL (≈ 50.6 µM) | 20 µg/mL (≈ 40.5 µM) |  | inactive | 2 | 2.5 | 3.3
COc1ccc(NC(=S)NN2C(c3ccccc3)=C(c3ccccc3)OC2c2ccc(O)cc2)cc1 (configuration not stated) | 16 (≈ 32.3 µM) |  |  |  |  |  |  |  |  |  |  |  | 
COc1ccc(C2OC(c3ccccc3)=C(c3ccccc3)N2NC(=S)Nc2ccccc2OC)cc1 (configuration not stated) |  | 50 µg/mL (≈ 98.1 µM) | 40 µg/mL (≈ 78.5 µM) | inactive | 100 µg/mL (≈ 196 µM) | inactive | inactive | 30 µg/mL (≈ 58.9 µM) |  | inactive |  | 1.6 | 2.5
Oc1ccc(C2OC(c3ccccc3)=C(c3ccccc3)N2NC(=S)Nc2ccccc2Cl)cc1 (configuration not stated) |  | 100 µg/mL (≈ 200 µM) | 30 µg/mL (≈ 60 µM) | inactive | 50 µg/mL (≈ 100 µM) | inactive | inactive | 40 µg/mL (≈ 80 µM) |  | inactive |  | 2.5 | 1.6
COC1=CC(=O)C[C@@H](C)[C@]12Oc1c(Cl)c(OC)cc(OC)c1C2=O [GRISEOFULVIN] | 20 (≈ 56.7 µM) |  |  |  |  |  |  |  |  |  |  |  | 
Oc1ccc(C2OC(c3ccccc3)=C(c3ccccc3)N2NC(=S)Nc2ccc(Cl)cc2)cc1 (configuration not stated) | 16 (≈ 32 µM) |  |  |  |  |  |  |  |  |  |  |  | 
COc1ccc(C2OC(c3ccccc3)=C(c3ccccc3)N2NC(=S)Nc2ccc(C)cc2)cc1 (configuration not stated) | 14 (≈ 28.4 µM) |  |  |  |  |  |  |  |  |  |  |  | 
Cc1ccccc1NC(=S)NN1C(c2ccccc2)=C(c2ccccc2)OC1c1ccc(O)cc1 (configuration not stated) |  | inactive | inactive | inactive | inactive | 100 µg/mL (≈ 209 µM) | 50 µg/mL (≈ 104 µM) | inactive |  | inactive | 2 |  | 
COc1ccc(C2OC(c3ccccc3)=C(c3ccccc3)N2NC(=S)Nc2ccc(Cl)cc2)cc1 (configuration not stated) | 16 (≈ 31.1 µM) |  |  |  |  |  |  |  |  |  |  |  | 
O=C(O)c1cn(C2CC2)c2cc(N3CCNCC3)c(F)cc2c1=O [CIPROFLOXACIN] |  | 25 µg/mL (≈ 75.4 µM) | 6.5 µg/mL (≈ 19.6 µM) |  | 12.5 µg/mL (≈ 37.7 µM) | 10.2 µg/mL (≈ 30.9 µM) | 6.25 µg/mL (≈ 18.9 µM) | 10 µg/mL (≈ 30.2 µM) |  | 25 µg/mL (≈ 75.4 µM) |  |  | 
COc1ccccc1NC(=S)NN1C(c2ccccc2)=C(c2ccccc2)OC1c1ccc(O)cc1 (configuration not stated) |  | inactive | inactive | inactive | inactive | 50 µg/mL (≈ 101 µM) | 25 µg/mL (≈ 50.4 µM) | inactive |  | inactive | 2 |  | 

— ChEMBL document CHEMBL4052735, “One-pot two-step facile synthesis of 2,3,4,5-tetra substituted dihydrooxazoles and their antimicrobial activity” (2017)
